According to US4231936A, “Mitomycin C derivatives” (priority 1977, dated 1980):

Tests used:
[1] = tested on: Klebsiella pneumoniae ATCC 10031; assay: Minimum inhibitory concentration (Table I); format: cell-based
Description: (§1) Comparative data similarly obtained by using mitomycin A, mitomycin C and 7-N-phenyl mitomycin C are also shown in this table

[2] = tested on: Shigella sonnei ATCC 9290; assay: Minimum inhibitory concentration (Table I); format: cell-based
Description: as §1

[3] = tested on: Bacillus subtilis ATCC 10707; assay: Minimum inhibitory concentration (Table I); format: cell-based
Description: as §1

[4] = tested on: Staphylococcus aureus ATCC 6538P; assay: Minimum inhibitory concentration (Table I); format: cell-based
Description: as §1

Sarcoma 180 cells = assay: Effect on Sarcoma-180, tumor weight ratio (Example IV); format: in vivo, dd-strain mice; design: key: D*: All mice in the group died
Protocol: (§2) The following treatment was performed to make these compounds water-soluble for use in the experiments. A test compound was dissolved in ethanol (about 1000 times by weight) HCO-60, a commercially available surfactant was added in amounts of about 3 times by weight. The mixture was well stirred to dissolve the HCO-60. Ethanol was removed from the solution under reduced pressure by using a rotary evaporator. After this, a test solution was prepared by adding a suitable amount of a physiological saline solution with agitation.
(§3) Sarcoma 180 cells were inoculated intraperitoneally into dd-strain mice. After 7 days following tumor implantation, ascites tumor cells were obtained from the mice. The cells were washed and a tumor cell suspension containing 5×10^7 cells per ml was prepared with physiological saline solution. 0.1 ml of the thus-prepared suspension containing 5×10^6 cells was inoculated into the left inguinal region of each of the test mice (dd-strain; weight 19±1 g; divided into groups, each group consisting of 5 mice). After 24 hours following the inoculation, the test compounds were administered to the mice individually and intraperitoneally. After 4 days following the inoculation, the peripherical blood of the treated mice was obtained by the puncture of the orbital vein. The number of the leucocytes in the peripheral blood was measured by using Toa Microcell Counter CC-108 (a commercial product of Toa Medical Electronics Co., Ltd., Japan). In order to evaluate the antitumor effects, the tumor was removed 7 days after the inoculation and weighed. Its weight was compared with the average weight of the tumors of the control group (untreated) to give the weight ratios (T/C) shown in Table 5.

P-388 cells [5] = assay: Antitumor effect, P-388 cells intravenously inoculated, compound i.v. (Example III); format: in vivo, Mice; conditions: 30 days
Protocol: as §2
Mice were inoculated intravenously with P-388 cells (10^6 /0.2 ml) in a similar manner to that described above in Example II. […] Untreated mice and mice administered with Tween 80 were used for control purpose.

Solubility in water = format: physicochemical
[6] = Number of leucocytes in peripheral blood of Sarcoma-180 bearing mice (Example IV); format: in vivo, dd-strain mice; design: key: D*: All mice in the group died
Protocol: as §2, §3

P-388 cells [7] = assay: Antitumor activity, P-388 leukemia intraperitoneally inoculated, compound i.p. (Example II); format: in vivo, CDF1 mice
Protocol: as §2
Seven-day-old leukemia cells obtained from the ascites of DBA/2 mice inoculated intraperitoneally with 10^6 P-388 cells were used. A cell suspension containing 5×10^6 cells per ml was prepared by using a sterilized physiological saline solution. The test mice (CDF1 mice, 20-25 g) were inoculated with 0.2 ml of the cell suspension containing 1×10^6 cells intraperitoneally. After 24 hours, the mice were divided into groups (each group consisting of 5 mice) and the test solutions were administered intraperitoneally once only. […] In order to evaluate the effects of the test samples, the average survival days were calculated 30 and 60 days after tumor implantation and compared with those of the control group (untreated group). Antitumor activities of the test compounds are indicated by ILS % (increase in life span%) on the basis of the control group.

[8] = Acute toxicity determination, intraperitoneal; design: species or system Mice (dd-strain); conditions: mouse, in vivo, ip; dd mice, single i.p., 14 days, Behrens-Karber
Protocol: as §2
Mice [dd-strain; weight 20±1 g; each group consisted of 5 mice] were used for this experiment. An individual test solution was administered to each mouse by intraperitoneal injection. The test solutions (each 0.5 ml) were prepared by stepwise dilution.

[9] = 5 mg/kg i.p., tumor weighed 7 days after inoculation
[10] = 10 mg/kg i.p., tumor weighed 7 days after inoculation
[11] = 20 mg/kg i.p., tumor weighed 7 days after inoculation
[12] = 5 mg/kg i.p., 4 days after inoculation
[13] = 10 mg/kg i.p., 4 days after inoculation
[14] = 20 mg/kg i.p., 4 days after inoculation
[15] = 5 mg/kg i.p. once, determined after 30 days
[16] = 5 mg/kg i.p. once, determined after 60 days
[17] = 10 mg/kg i.p. once, determined after 30 days
[18] = 10 mg/kg i.p. once, determined after 60 days
[19] = 15 mg/kg i.p. once, determined after 30 days
[20] = 15 mg/kg i.p. once, determined after 60 days
[21] = 20 mg/kg i.p. once, determined after 30 days
[22] = 20 mg/kg i.p. once, determined after 60 days
[23] = 40 mg/kg i.p., tumor weighed 7 days after inoculation
[24] = 40 mg/kg i.p., 4 days after inoculation
[25] = 30 mg/kg i.p. once, determined after 30 days
[26] = 30 mg/kg i.p. once, determined after 60 days

## CO[C@@]12[C@H](COC(N)=O)C3=C(C(=O)C(C)=C(Nc4ccccc4)C3=O)N1C[C@@H]1N[C@@H]12 [III, 7-N-phenyl mitomycin C, reference compound]
[1]
  minimum inhibitory concentration: 0.098
[2]
  minimum inhibitory concentration: 1.563
[3]
  minimum inhibitory concentration: < 0.025
[4]
  minimum inhibitory concentration: < 0.025
Sarcoma 180 cells; [9]
  T/C (tumor weight ratio): 0.84
Sarcoma 180 cells; [10]
  T/C (tumor weight ratio): 0.59
Sarcoma 180 cells; [11]
  T/C (tumor weight ratio): 0.21
Sarcoma 180 cells; 40 mg/kg i.p., death symbol in place of T/C
  T/C (tumor weight ratio): D*
P-388 cells [5]; 5 mg/kg i.v. once
  Average survival days: 11.4 ± 1.4 days
  ILS %: 33%
P-388 cells [5]; 10 mg/kg i.v. once
  Average survival days: 13.6 ± 1.4 days
  ILS %: 54%
P-388 cells [5]; 15 mg/kg i.v. once
  Average survival days: 15.8 ± 1.5 days
  ILS %: 84%
P-388 cells [5]; 20 mg/kg i.v. once
  Average survival days: 18.0 ± 1.7 days
  ILS %: 109%
P-388 cells [5]; 30 mg/kg i.v. once
  Average survival days: 10.0 ± 2.3 days
  ILS %: 16%
Solubility in water
  solubility in water: low solubility in water
[6]; [12]
  Average number of leucocytes: 81.4 ± 21.2 × 10^2 /mm^3
[6]; [13]
  Average number of leucocytes: 60.8 ± 18.7 × 10^2 /mm^3
[6]; [14]
  Average number of leucocytes: 31.8 ± 11.9 × 10^2 /mm^3
[6]; 40 mg/kg i.p., death symbol in place of count
  Average number of leucocytes: D*
P-388 cells [7]; [15]
  Average survival days: 17.84 ± 1.2 days
  ILS % (increase in life span): 82%
  Number of survivors: 0/5
P-388 cells [7]; [16]
  Average survival days: 17.8 ± 1.2 days
  ILS % (increase in life span): 82%
  Number of survivors: 0/5
P-388 cells [7]; [17]
  Average survival days: 21.8 ± 4.3 days
  ILS % (increase in life span): 122%
  Number of survivors: 1/5
P-388 cells [7]; [18]
  Average survival days: 22.04 ± 4.6 days
  ILS % (increase in life span): 124%
  Number of survivors: 0/5
P-388 cells [7]; [19]
  Average survival days: 21.2 ± 2.8 days
  ILS % (increase in life span): 116%
  Number of survivors: 0/5
P-388 cells [7]; [20]
  Average survival days: 21.2 ± 2.8 days
  ILS % (increase in life span): 116%
  Number of survivors: 0/5
P-388 cells [7]; [21]
  Average survival days: 21.6 ± 4.4 days
  ILS % (increase in life span): 120%
  Number of survivors: 1/5
P-388 cells [7]; [22]
  Average survival days: 21.8 ± 4.8 days
  ILS % (increase in life span): 122%
  Number of survivors: 0/5

## CO[C@@]12[C@H](COC(N)=O)C3=C(C(=O)C(C)=C(Nc4ccc(N)cc4)C3=O)N1C[C@@H]1N[C@@H]12 [V, 7-N-(p-aminophenyl)-mitomycin C]
[8]
  LD50 at 336 h: 18 mg/kg
[1]
  minimum inhibitory concentration: 0.049
[2]
  minimum inhibitory concentration: 3.125
[3]
  minimum inhibitory concentration: < 0.025
[4]
  minimum inhibitory concentration: < 0.025
Sarcoma 180 cells; [9]
  T/C (tumor weight ratio): 0.71
Sarcoma 180 cells; [10]
  T/C (tumor weight ratio): 0.37
Sarcoma 180 cells; [11]
  T/C (tumor weight ratio): 0.24
Sarcoma 180 cells; [23]
  T/C (tumor weight ratio): 0.09
P-388 cells [5]; 5 mg/kg i.v. once
  Average survival days: 14.0 ± 0 days
  ILS %: 63%
P-388 cells [5]; 10 mg/kg i.v. once
  Average survival days: 17.8 ± 1.9 days
  ILS %: 107%
P-388 cells [5]; 15 mg/kg i.v. once
  Average survival days: 23.0 ± 1.7 days
  ILS %: 167%
P-388 cells [5]; 20 mg/kg i.v. once
  Average survival days: 15.8 ± 5.4 days
  ILS %: 84%
P-388 cells [5]; 30 mg/kg i.v. once
  Average survival days: 8.4 ± 1.0 days
  ILS %: -2%
Solubility in water
  solubility in water: low solubility in water
[6]; [12]
  Average number of leucocytes: 58.2 ± 17.1 × 10^2 /mm^3
[6]; [13]
  Average number of leucocytes: 34.2 ± 11.2 × 10^2 /mm^3
[6]; [14]
  Average number of leucocytes: 24.0 ± 10.2 × 10^2 /mm^3
[6]; [24]
  Average number of leucocytes: 13.6 ± 4.6 × 10^2 /mm^3
P-388 cells [7]; [15]
  Average survival days: 20.0 ± 3.0 days
  ILS % (increase in life span): 104%
  Number of survivors: 0/5
P-388 cells [7]; [16]
  Average survival days: 20.0 ± 3.0 days
  ILS % (increase in life span): 104%
  Number of survivors: 0/5
P-388 cells [7]; [17]
  Average survival days: 24.6 ± 2.9 days
  ILS % (increase in life span): 151%
  Number of survivors: 1/5
P-388 cells [7]; [18]
  Average survival days: 26.4 ± 6.4 days
  ILS % (increase in life span): 169%
  Number of survivors: 0/5
P-388 cells [7]; [19]
  Average survival days: 21.6 ± 6.4 days
  ILS % (increase in life span): 120%
  Number of survivors: 1/5
P-388 cells [7]; [20]
  Average survival days: 21.8 ± 6.7 days
  ILS % (increase in life span): 122%
  Number of survivors: 0/5
P-388 cells [7]; [21]
  Average survival days: 18.4 ± 6.1 days
  ILS % (increase in life span): 88%
  Number of survivors: 1/5
P-388 cells [7]; [22]
  Average survival days: 24.4 ± 17.9 days
  ILS % (increase in life span): 149%
  Number of survivors: 1/5

## CO[C@@]12[C@H](COC(N)=O)C3=C(C(=O)C(C)=C(Nc4ccc(O)cc4)C3=O)N1C[C@@H]1N[C@@H]12 [Compound IV, 7-N-(p-hydroxyphenyl)-mitomycin C]
[8]
  LD50 at 336 h: 34 mg/kg
[1]
  minimum inhibitory concentration: 0.391
[2]
  minimum inhibitory concentration: 6.25
[3]
  minimum inhibitory concentration: 0.049
[4]
  minimum inhibitory concentration: 0.196
Sarcoma 180 cells; [9]
  T/C (tumor weight ratio): 0.83
Sarcoma 180 cells; [10]
  T/C (tumor weight ratio): 0.66
Sarcoma 180 cells; [11]
  T/C (tumor weight ratio): 0.46
Sarcoma 180 cells; [23]
  T/C (tumor weight ratio): 0.27
P-388 cells [5]; 5 mg/kg i.v. once
  Average survival days: 11.4 ± 1.4 days
  ILS %: 33%
P-388 cells [5]; 10 mg/kg i.v. once
  Average survival days: 14.0 ± 0 days
  ILS %: 63%
P-388 cells [5]; 15 mg/kg i.v. once
  Average survival days: 16.6 ± 1.5 days
  ILS %: 93%
P-388 cells [5]; 20 mg/kg i.v. once
  Average survival days: 17.6 ± 4.1 days
  ILS %: 105%
P-388 cells [5]; 30 mg/kg i.v. once
  Average survival days: 7.6 ± 0.8 days
  ILS %: -12%
Solubility in water
  solubility in water: low solubility in water
[6]; [12]
  Average number of leucocytes: 63.2 ± 10.2 × 10^2 /mm^3
[6]; [13]
  Average number of leucocytes: 64.0 ± 24.6 × 10^2 /mm^3
[6]; [14]
  Average number of leucocytes: 39.0 ± 5.6 × 10^2 /mm^3
[6]; [24]
  Average number of leucocytes: 40.0 ± 15.3 × 10^2 /mm^3
P-388 cells [7]; [15]
  Average survival days: 20.4 ± 5.2 days
  ILS % (increase in life span): 108%
  Number of survivors: 1/5
P-388 cells [7]; [16]
  Average survival days: 20.4 ± 5.2 days
  ILS % (increase in life span): 108%
  Number of survivors: 0/5
P-388 cells [7]; [17]
  Average survival days: 23.0 ± 4.5 days
  ILS % (increase in life span): 135%
  Number of survivors: 1/5
P-388 cells [7]; [18]
  Average survival days: 23.4 ± 5.1 days
  ILS % (increase in life span): 136%
  Number of survivors: 0/5
P-388 cells [7]; [21]
  Average survival days: 28.4 ± 3.2 days
  ILS % (increase in life span): 190%
  Number of survivors: 4/5
P-388 cells [7]; [22]
  Average survival days: 47.6 ± 15.8 days
  ILS % (increase in life span): 386%
  Number of survivors: 3/5
P-388 cells [7]; [25]
  Average survival days: 15.4 ± 0.4 days
  ILS % (increase in life span): 57%
  Number of survivors: 1/5
P-388 cells [7]; [26]
  Average survival days: 21.4 ± 20.7 days
  ILS % (increase in life span): 118%
  Number of survivors: 1/5

## COC1=C(C)C(=O)C2=C(C1=O)[C@@H](COC(N)=O)[C@@]1(OC)[C@H]3N[C@H]3CN21 [Compound I, mitomycin A]
[1]
  minimum inhibitory concentration: < 0.025
[2]
  minimum inhibitory concentration: 0.098
[3]
  minimum inhibitory concentration: < 0.025
[4]
  minimum inhibitory concentration: < 0.025
